Source: patent US20230257396A1, “MACROCYCLES AND THEIR USE” (BLOSSOMHILL THERAPEUTICS, INC., priority 2020, published 2023)

What was measured:
Test in all cases: KINOMEscan kinase binding assay (Eurofins/DiscoveRx), % Ctrl
kinases [1] = molecular target: T1, kinases (Homo sapiens, UniProt P36888, N841I)
T1 construct: purchased Eurofins/DiscoveRx; host or cells: E. coli BL21-derived host (T7 phage display) for most kinases; HEK-293 for the rest
T1 sequence (P36888 27-993 N841I): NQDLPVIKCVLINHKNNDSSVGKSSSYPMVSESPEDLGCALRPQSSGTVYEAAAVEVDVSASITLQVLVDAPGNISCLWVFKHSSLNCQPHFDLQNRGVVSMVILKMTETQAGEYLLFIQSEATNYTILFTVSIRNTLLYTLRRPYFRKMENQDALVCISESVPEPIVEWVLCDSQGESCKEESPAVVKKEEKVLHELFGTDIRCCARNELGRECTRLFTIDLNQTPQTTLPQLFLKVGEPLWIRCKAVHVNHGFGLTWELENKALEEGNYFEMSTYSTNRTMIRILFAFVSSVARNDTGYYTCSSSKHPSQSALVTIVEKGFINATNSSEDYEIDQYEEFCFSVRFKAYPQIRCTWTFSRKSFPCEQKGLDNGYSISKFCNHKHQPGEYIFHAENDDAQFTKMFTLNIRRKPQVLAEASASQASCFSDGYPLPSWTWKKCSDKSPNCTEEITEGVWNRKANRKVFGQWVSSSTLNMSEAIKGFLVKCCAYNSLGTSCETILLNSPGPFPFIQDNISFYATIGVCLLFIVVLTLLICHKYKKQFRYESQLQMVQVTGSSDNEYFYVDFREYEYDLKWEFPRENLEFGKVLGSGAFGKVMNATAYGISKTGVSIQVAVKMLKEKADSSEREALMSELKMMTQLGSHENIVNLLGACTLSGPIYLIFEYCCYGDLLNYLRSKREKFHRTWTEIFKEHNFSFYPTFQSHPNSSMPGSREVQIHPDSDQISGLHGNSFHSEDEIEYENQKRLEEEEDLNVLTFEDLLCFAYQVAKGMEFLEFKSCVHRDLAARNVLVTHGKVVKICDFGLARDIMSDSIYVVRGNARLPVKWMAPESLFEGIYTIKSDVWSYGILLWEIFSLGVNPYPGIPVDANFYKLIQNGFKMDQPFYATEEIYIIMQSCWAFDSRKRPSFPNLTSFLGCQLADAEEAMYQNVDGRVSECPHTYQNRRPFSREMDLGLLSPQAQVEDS
Procedure, shortened: (§1)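 Competition binding: DNA- or phage-tagged kinases (T7 phage in E. coli BL21, or HEK-293-expressed) with immobilized biotinylated ligand beads and test compound, 1 h at room temperature. Bead-bound kinase eluted and quantified by qPCR; % Ctrl = (compound − positive control)/(negative control − positive control) ×100 at a single compound concentration.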

kinases [2] = molecular target: T2, kinases (Homo sapiens, UniProt P42684)
T2 construct: purchased Eurofins/DiscoveRx; host or cells: E. coli BL21-derived host (T7 phage display) for most kinases; HEK-293 for the rest
Procedure, shortened: as §1

kinases [3] = molecular target: T3, kinases (Homo sapiens, UniProt P10721, V559D/V654A)
T3 construct: purchased Eurofins/DiscoveRx; host or cells: E. coli BL21-derived host (T7 phage display) for most kinases; HEK-293 for the rest
Procedure, shortened: as §1

kinases [4] = molecular target: T4, kinases (Homo sapiens, UniProt P10721, D816V)
T4 construct: purchased Eurofins/DiscoveRx; host or cells: E. coli BL21-derived host (T7 phage display) for most kinases; HEK-293 for the rest
Procedure, shortened: as §1

kinases [5] = molecular target: T5, kinases (Homo sapiens, UniProt P07949, V804L)
T5 construct: purchased Eurofins/DiscoveRx; host or cells: E. coli BL21-derived host (T7 phage display) for most kinases; HEK-293 for the rest
Procedure, shortened: as §1

kinases [6] = molecular target: T6, kinases (Homo sapiens, UniProt P10721, V559D)
T6 construct: purchased Eurofins/DiscoveRx; host or cells: E. coli BL21-derived host (T7 phage display) for most kinases; HEK-293 for the rest
Procedure, shortened: as §1

kinases [7] = molecular target: T7, kinases (Homo sapiens, UniProt P00533)
T7 construct: purchased Eurofins/DiscoveRx; host or cells: E. coli BL21-derived host (T7 phage display) for most kinases; HEK-293 for the rest
Procedure, shortened: as §1

kinases [8] = molecular target: T8, kinases (Homo sapiens, UniProt P00519, F317I)
T8 construct: purchased Eurofins/DiscoveRx; host or cells: E. coli BL21-derived host (T7 phage display) for most kinases; HEK-293 for the rest
Procedure, shortened: as §1

kinases [9] = molecular target: T9, kinases (Homo sapiens, UniProt P10721, A829P)
T9 construct: purchased Eurofins/DiscoveRx; host or cells: E. coli BL21-derived host (T7 phage display) for most kinases; HEK-293 for the rest
Procedure, shortened: as §1

kinases [10] = molecular target: T10, kinases (Homo sapiens, UniProt P00533, L861Q)
T10 construct: purchased Eurofins/DiscoveRx; host or cells: E. coli BL21-derived host (T7 phage display) for most kinases; HEK-293 for the rest
Procedure, shortened: as §1

kinases [11] = molecular target: T11, kinases (Homo sapiens, UniProt P10721)
T11 construct: purchased Eurofins/DiscoveRx; host or cells: E. coli BL21-derived host (T7 phage display) for most kinases; HEK-293 for the rest
Procedure, shortened: as §1

[12] = 1 μM; ABL1(F317I)-nonphosphorylated
[13] = 1 μM; ABL1(F317I)-phosphorylated
[14] = target ABL1(F317I)-nonphosphorylated; 1 μM
[15] = target ABL1(F317I)-phosphorylated; 1 μM

T6 sequence (P10721 26-976 V559D): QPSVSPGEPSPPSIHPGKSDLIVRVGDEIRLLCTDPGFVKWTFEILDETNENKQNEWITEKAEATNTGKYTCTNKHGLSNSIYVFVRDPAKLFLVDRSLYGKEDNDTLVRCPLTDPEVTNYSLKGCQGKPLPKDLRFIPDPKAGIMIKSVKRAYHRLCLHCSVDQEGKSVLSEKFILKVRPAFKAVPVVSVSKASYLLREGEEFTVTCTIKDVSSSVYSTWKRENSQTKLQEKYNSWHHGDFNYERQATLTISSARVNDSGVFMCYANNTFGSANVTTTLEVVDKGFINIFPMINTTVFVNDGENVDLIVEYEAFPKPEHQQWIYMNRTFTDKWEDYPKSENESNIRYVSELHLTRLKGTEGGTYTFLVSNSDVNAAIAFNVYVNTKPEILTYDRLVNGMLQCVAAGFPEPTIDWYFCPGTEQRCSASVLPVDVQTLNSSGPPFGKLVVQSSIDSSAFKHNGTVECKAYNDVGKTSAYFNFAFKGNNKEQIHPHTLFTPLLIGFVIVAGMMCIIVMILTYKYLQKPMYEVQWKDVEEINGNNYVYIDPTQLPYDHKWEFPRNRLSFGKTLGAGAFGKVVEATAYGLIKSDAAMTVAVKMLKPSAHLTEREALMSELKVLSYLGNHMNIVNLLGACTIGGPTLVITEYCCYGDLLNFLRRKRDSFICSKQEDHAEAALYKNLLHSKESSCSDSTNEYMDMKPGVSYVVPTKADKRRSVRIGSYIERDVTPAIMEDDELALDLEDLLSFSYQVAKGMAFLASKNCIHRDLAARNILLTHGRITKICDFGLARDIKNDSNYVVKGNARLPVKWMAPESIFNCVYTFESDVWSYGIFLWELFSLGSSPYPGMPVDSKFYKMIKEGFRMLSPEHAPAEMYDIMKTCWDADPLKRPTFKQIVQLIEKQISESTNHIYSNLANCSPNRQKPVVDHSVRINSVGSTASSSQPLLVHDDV
T9 sequence (P10721 26-976 A829P): as the sequence (P10721 26-976 V559D) above, with D534V, A804P counted along it
T2 sequence (P42684 whole entry): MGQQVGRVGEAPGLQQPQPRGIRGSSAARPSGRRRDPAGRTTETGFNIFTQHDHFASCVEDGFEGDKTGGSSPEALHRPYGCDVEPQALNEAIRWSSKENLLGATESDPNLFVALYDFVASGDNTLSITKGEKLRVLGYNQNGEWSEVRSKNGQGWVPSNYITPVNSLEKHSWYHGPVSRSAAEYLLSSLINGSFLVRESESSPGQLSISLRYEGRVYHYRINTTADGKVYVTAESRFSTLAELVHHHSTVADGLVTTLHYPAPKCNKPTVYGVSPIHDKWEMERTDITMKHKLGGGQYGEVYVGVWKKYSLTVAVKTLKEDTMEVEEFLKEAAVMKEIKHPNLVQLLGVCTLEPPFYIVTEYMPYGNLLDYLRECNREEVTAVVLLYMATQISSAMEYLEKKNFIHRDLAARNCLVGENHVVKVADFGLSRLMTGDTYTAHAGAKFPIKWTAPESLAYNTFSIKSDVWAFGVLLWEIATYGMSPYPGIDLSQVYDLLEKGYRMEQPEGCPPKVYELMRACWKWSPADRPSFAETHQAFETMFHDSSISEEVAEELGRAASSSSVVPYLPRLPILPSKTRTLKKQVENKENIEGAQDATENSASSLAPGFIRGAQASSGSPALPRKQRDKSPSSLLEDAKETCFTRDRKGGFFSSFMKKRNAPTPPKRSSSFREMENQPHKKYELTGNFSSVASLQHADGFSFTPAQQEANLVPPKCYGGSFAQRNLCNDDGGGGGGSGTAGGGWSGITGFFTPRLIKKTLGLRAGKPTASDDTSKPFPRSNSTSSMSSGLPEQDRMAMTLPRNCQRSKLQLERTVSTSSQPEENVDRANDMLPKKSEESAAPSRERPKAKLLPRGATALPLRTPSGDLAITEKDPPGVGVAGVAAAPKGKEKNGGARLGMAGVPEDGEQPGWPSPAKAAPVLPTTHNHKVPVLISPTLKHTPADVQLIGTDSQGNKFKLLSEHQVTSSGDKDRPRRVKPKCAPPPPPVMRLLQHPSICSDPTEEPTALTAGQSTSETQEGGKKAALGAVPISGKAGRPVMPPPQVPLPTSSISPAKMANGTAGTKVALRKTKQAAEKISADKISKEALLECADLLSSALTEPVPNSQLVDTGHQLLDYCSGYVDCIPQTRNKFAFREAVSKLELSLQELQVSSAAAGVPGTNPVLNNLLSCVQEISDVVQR
T11 sequence (P10721 26-976): as the sequence (P10721 26-976 V559D) above, with D534V counted along it
T8 sequence (P00519 whole entry F317I): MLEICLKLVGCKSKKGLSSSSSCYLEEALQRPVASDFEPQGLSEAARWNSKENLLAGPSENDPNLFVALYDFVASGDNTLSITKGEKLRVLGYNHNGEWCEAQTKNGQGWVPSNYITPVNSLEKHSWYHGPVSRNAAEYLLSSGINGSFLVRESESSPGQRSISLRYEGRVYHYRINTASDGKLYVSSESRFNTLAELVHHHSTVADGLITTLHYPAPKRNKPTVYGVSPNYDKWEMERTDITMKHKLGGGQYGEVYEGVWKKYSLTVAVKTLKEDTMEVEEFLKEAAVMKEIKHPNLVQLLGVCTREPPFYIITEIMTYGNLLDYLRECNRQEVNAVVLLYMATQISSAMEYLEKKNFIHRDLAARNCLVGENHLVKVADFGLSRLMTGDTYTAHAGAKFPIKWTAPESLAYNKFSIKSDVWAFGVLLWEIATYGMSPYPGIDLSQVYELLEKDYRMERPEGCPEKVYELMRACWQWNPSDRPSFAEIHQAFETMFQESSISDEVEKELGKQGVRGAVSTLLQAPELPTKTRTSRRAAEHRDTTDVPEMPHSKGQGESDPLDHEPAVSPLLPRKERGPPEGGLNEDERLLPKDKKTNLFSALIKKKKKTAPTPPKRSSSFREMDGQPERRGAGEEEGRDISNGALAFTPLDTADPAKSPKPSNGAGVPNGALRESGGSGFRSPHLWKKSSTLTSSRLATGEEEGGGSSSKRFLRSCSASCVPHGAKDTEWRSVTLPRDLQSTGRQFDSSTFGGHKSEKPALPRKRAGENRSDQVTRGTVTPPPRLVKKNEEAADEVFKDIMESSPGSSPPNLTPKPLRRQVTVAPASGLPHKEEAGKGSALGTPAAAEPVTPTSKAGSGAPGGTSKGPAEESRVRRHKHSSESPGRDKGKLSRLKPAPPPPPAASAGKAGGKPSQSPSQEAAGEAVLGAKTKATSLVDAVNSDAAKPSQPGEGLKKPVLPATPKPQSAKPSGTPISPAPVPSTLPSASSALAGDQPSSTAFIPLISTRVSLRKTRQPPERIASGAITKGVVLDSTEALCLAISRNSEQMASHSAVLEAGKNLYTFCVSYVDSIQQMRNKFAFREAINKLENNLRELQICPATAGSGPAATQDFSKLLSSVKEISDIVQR
T5 sequence (P07949 29-1114 V804L): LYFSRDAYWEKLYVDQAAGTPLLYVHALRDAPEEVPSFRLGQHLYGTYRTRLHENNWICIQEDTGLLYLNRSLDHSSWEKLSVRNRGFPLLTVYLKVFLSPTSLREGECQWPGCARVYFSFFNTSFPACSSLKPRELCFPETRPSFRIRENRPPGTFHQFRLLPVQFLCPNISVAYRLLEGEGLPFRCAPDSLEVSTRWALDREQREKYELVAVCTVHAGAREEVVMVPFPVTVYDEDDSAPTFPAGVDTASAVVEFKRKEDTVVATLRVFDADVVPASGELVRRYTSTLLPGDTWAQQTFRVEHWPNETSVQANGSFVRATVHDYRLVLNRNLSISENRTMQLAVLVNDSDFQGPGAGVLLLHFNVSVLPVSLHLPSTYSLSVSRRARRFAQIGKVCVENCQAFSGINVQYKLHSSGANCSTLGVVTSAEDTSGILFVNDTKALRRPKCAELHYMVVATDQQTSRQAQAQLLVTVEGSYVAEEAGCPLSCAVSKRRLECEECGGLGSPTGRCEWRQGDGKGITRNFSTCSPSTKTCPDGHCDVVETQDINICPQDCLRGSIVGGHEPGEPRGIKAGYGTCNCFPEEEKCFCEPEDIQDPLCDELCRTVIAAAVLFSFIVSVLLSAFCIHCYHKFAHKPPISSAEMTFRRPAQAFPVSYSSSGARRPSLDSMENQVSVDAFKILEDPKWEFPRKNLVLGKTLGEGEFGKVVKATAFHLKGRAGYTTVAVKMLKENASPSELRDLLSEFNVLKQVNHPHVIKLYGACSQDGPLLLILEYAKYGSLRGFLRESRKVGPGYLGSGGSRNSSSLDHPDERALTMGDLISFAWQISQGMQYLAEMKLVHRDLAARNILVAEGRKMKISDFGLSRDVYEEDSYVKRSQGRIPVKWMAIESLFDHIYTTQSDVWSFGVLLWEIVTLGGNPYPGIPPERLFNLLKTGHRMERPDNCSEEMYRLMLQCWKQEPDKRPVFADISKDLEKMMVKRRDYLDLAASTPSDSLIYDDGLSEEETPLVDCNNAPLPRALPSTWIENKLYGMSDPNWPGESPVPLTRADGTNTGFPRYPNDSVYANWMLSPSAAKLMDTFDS
T3 sequence (P10721 26-976 V559D/V654A): as the sequence (P10721 26-976 V559D) above, with V629A counted along it
T4 sequence (P10721 26-976 D816V): as the sequence (P10721 26-976 V559D) above, with D534V, D791V counted along it

| Compound | % Ctrl, FLT3(N841I) (kinases [1]; 1 μM; FLT3(N841I)) [% Ctrl] | % Ctrl, ABL2 (kinases [2]; 1 μM; ABL2) [% Ctrl] | % Ctrl, KIT(V559D, V654A) (kinases [3]; 1 μM; KIT(V559D, V654A)) [% Ctrl] | % Ctrl, KIT(D816V) (kinases [4]; 1 μM; KIT(D816V)) [% Ctrl] | % Ctrl, RET(V804L) (kinases [5]; 1 μM; RET(V804L)) [% Ctrl] | % Ctrl, KIT(V559D) (kinases [6]; 1 μM; KIT(V559D)) [% Ctrl] | % Ctrl, EGFR (kinases [7]; 1 μM; EGFR) [% Ctrl] | % Ctrl, ABL1(F317I)-nonphosphorylated (kinases [8]; [12]) [% Ctrl] | % Ctrl, ABL1(F317I)-phosphorylated (kinases [8]; [13]) [% Ctrl] | % Ctrl, KIT(A829P) (kinases [9]; 1 μM; KIT(A829P)) [% Ctrl] | % Ctrl, EGFR(L861Q) (kinases [10]; 1 μM; EGFR(L861Q)) [% Ctrl] | % Ctrl, KIT (kinases [11]; 1 μM; KIT) [% Ctrl] | % Ctrl, KIT-autoinhibited (kinases [11]; 1 μM; KIT-autoinhibited) [% Ctrl] | % Ctrl, FLT3(N841I) (kinases [1]; target FLT3(N841I); 1 μM) [% Ctrl] | % Ctrl, ABL2 (kinases [2]; target ABL2; 1 μM) [% Ctrl] | % Ctrl, KIT(V559D, V654A) (kinases [3]; target KIT(V559D, V654A); 1 μM) [% Ctrl] | % Ctrl, KIT(D816V) (kinases [4]; target KIT(D816V); 1 μM) [% Ctrl] | % Ctrl, RET(V804L) (kinases [5]; target RET(V804L); 1 μM) [% Ctrl] | % Ctrl, KIT(V559D) (kinases [6]; target KIT(V559D); 1 μM) [% Ctrl] | % Ctrl, EGFR (kinases [7]; target EGFR; 1 μM) [% Ctrl] | other results |
| --- | --- | --- | --- | --- | --- | --- | --- | --- | --- | --- | --- | --- | --- | --- | --- | --- | --- | --- | --- | --- | --- |
| Cc1cc2c([nH]1)/C=C1\C(=O)Nc3ccc(cc31)-c1cnn(C)c1CN(C)CCN(C)C2=O [Ex. 126, [3a(4)Z]-6,9,12,14-tetramethyl-9,10,11,12,13,14-hexahydro-1,17-(ethanediylidene)pyrazolo[4,3-m]dipyrrolo[3,2-f:3′,4′-i][1,4]diazacyclopentadecine-3,8(2H,5H)-dione] | 0 | 0.9 | 0.4 | 0.3 | 0 | 1.4 | 23 | 0 | 0.3 | 0 | 50 | 6.3 | 84 | – | – | – | – | – | – | – | – |
| Cc1cc2c([nH]1)/C=C1\C(=O)Nc3ccc(cc31)-c1c(noc1C)CNCCN(C)C2=O [Ex. 139, [3a(4)Z]-6,9,16-trimethyl-10,11,12,13-tetrahydro-2H-1,17-(ethanediylidene)[1,2]oxazolo[4,3-m]dipyrrolo[3,2-f:3′,4′-i][1,4]diazacyclopentadecine-3,8(5H,9H)-dione] | – | – | – | – | – | – | – | – | – | – | – | – | – | 12 | 70 | 75 | 63 | 15 | 91 | 94 | % Ctrl, ABL1(F317I)-nonphosphorylated (kinases [8]; [14]): 72 % Ctrl; % Ctrl, ABL1(F317I)-phosphorylated (kinases [8]; [15]): 60 % Ctrl; % Ctrl, KIT(A829P) (kinases [9]; target KIT(A829P); 1 μM): 74 % Ctrl; % Ctrl, EGFR(L861Q) (kinases [10]; target EGFR(L861Q); 1 μM): 88 % Ctrl; % Ctrl, KIT-autoinhibited (kinases [11]; target KIT-autoinhibited; 1 μM): 81 % Ctrl; % Ctrl, KIT (kinases [11]; target KIT; 1 μM): 94 % Ctrl |
| Cc1cc2c([nH]1)/C=C1\C(=O)Nc3cnc(cc31)-c1cnn(C)c1CN(C)CCN(C)C2=O [Ex. 172, [3a(4)Z]-6,9,12,14-tetramethyl-9,10,11,12,13,14-hexahydro-17,1-(azenometheno)pyrazolo[4,3-m]dipyrrolo[3,2-f:3′,4′-i][1,4]diazacyclopentadecine-3,8(2H,5H)-dione] | – | – | – | – | – | – | – | – | – | – | – | – | – | – | – | – | – | – | – | – | % Ctrl, FLT3(N841I) (kinases [1]; 1 μM; target FLT3(N841I)): 0 % Ctrl; % Ctrl, ABL2 (kinases [2]; 1 μM; target ABL2): 4.2 % Ctrl; % Ctrl, KIT(V559D, V654A) (kinases [3]; 1 μM; target KIT(V559D, V654A)): 40 % Ctrl; % Ctrl, KIT(D816V) (kinases [4]; 1 μM; target KIT(D816V)): 0.8 % Ctrl; % Ctrl, RET(V804L) (kinases [5]; 1 μM; target RET(V804L)): 0.5 % Ctrl; % Ctrl, KIT(V559D) (kinases [6]; 1 μM; target KIT(V559D)): 42 % Ctrl; % Ctrl, EGFR (kinases [7]; 1 μM; target EGFR): 36 % Ctrl; % Ctrl, ABL1(F317I)-nonphosphorylated (kinases [8]; 1 μM; target ABL1(F317I)-nonphosphorylated): 24 % Ctrl; % Ctrl, ABL1(F317I)-phosphorylated (kinases [8]; 1 μM; target ABL1(F317I)-phosphorylated): 9.3 % Ctrl; % Ctrl, KIT(A829P) (kinases [9]; 1 μM; target KIT(A829P)): 31 % Ctrl; % Ctrl, EGFR(L861Q) (kinases [10]; 1 μM; target EGFR(L861Q)): 75 % Ctrl; % Ctrl, KIT (kinases [11]; 1 μM; target KIT): 68 % Ctrl; % Ctrl, KIT-autoinhibited (kinases [11]; 1 μM; target KIT-autoinhibited): 100 % Ctrl |
| Cc1cc2c([nH]1)/C=C1\C(=O)Nc3ccc(cc31)-c1c(C)nn(C)c1COCCN(C)C2=O [Ex. 146, [3a(4)Z]-6,9,14,16-tetramethyl-10,11,13,14-tetrahydro-2H-1,17-(ethanediylidene)pyrazolo[4,3-m]dipyrrolo[3,2-f:3′,4′-i][1,4]oxazacyclopentadecine-3,8(5H,9H)-dione] | – | – | – | – | – | – | – | – | – | – | – | – | – | 0 | 83 | 97 | 80 | 3 | 75 | 51 | % Ctrl, ABL1(F317I)-nonphosphorylated (kinases [8]; [14]): 100 % Ctrl; % Ctrl, ABL1(F317I)-phosphorylated (kinases [8]; [15]): 100 % Ctrl; % Ctrl, KIT(A829P) (kinases [9]; target KIT(A829P); 1 μM): 92 % Ctrl; % Ctrl, EGFR(L861Q) (kinases [10]; target EGFR(L861Q); 1 μM): 89 % Ctrl; % Ctrl, KIT-autoinhibited (kinases [11]; target KIT-autoinhibited; 1 μM): 80 % Ctrl; % Ctrl, KIT (kinases [11]; target KIT; 1 μM): 96 % Ctrl |
| Cc1cc2c([nH]1)/C=C1\C(=O)Nc3ccc(cc31)OCCOCCNC2=O [Ex. 129, [16a(17)Z]-2-methyl-6,7,9,10-tetrahydro-1H-12,14-(ethanediylidene)dipyrrolo[3,2-i:3′,4′-l][1,4,7]dioxazacyclopentadecine-4,16(5H,15H)-dione] | 68 | 96 | 98 | 93 | 96 | 98 | 98 | 94 | 100 | 100 | 81 | 100 | 78 | – | – | – | – | – | – | – | – |
| Cc1cc2c([nH]1)/C=C1\C(=O)Nc3ccc(cc31)CN(C)C(=O)COCCNC2=O [Ex.111, [17a(18)Z]-2,11-dimethyl-6,7,11,12-tetrahydro-1H-13,15-(ethanediylidene)dipyrrolo[3,2-f:3′,4′-i][1,4,14]oxadiazacyclohexadecine-4,10,17(5H,9H,16H)-trione] | 14 | 100 | 62 | 76 | 71 | 97 | 74 | 89 | 100 | 100 | 64 | 99 | 100 | – | – | – | – | – | – | – | – |
